Test results from patent publication US11820747B2, “PPARG inverse agonists and uses thereof” (Flare Therapeutics Inc., priority 2021, dated 2023).

Experiments:
[1] = test system: ANGPTL4, a PPARG target gene, in HT1197 (RXRA S427F mutation) cells; experiment: Bladder cancer pharmacodynamic assay, HT1197 cell assay (quantitative PCR of PPARG target genes); type: cell-based; conditions: Homo sapiens; for inhibition at 0.1 µM: 100 nM compound, 24 hours, percentage of a DMSO control; for EC50: 24 hours treatment, qPCR
Description: Bladder Cancer Pharmacodynamic Assay
5637 (PPARG amplified) and HT1197 (RXRA S427F mutation) cells were used for assessment of modulation of PPARG target genes using quantitative PCR. Cells were treated for 24 hours with PPARG inverse agonists prior to analysis of FABP4 (IDT, Cat: Hs.PT 58.20106818) and ANGPTL4 (IDT, Cat: Hs.PT 58.25480012) expression, with expression of the housekeeping gene TBP (IDT, Cat: Hs.PT 58v.39858774) used to normalize expression across samples. Quantitative PCR was performed using an ABI QuantStudio 7 Flex Reaction system. Data were analyzed and reported relative to DMSO control using the comparative Ct method (ΔΔCt).

[2] = molecular target: T1, PPARG/RXRA LBD heterodimer (Homo sapiens, UniProt P37231); experiment: PPARγ-MED1 blockade assay (TR-FRET, biotinylated MED1 LxxLL peptide); type: binding; conditions: for Emax: 3 h, maximal extent, GW9662 defined as 100%, DMSO 0%, read-out: % MED1 blockade relative to GW9662; for EC50: TR-FRET, 80 nM Rosiglitazone, 3 hours incubation
T1 construct: His-TEV-Q203-Y477; Uniprot ID P37231-2; made in house; host or cells: E. coli
T1 sequence (P37231 203-477 isoform P37231-2): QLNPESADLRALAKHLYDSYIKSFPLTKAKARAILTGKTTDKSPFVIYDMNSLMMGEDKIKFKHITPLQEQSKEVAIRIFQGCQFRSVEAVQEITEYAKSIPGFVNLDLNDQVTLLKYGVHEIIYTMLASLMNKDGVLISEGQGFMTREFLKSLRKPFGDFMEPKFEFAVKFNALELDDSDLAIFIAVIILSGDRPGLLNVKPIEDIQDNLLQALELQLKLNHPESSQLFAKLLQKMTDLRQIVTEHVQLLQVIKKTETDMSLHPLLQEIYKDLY
T1 sequence (P19793 228-462 partner limits assumed): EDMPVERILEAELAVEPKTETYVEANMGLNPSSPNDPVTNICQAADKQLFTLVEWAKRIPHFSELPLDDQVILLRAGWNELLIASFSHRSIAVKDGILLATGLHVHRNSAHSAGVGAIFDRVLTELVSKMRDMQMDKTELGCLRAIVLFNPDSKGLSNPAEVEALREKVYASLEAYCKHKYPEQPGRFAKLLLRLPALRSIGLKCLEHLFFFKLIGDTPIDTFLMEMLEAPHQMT
Description: PPARγ-MED1 Blockade Assay:
Compound potency (ICs) and maximal extent of MED1 repulsion to PPARG were assessed a TR-FRET binding assay measuring association of a biotinylated MED1 LxxLL peptide (Biotin-[…]-amide) to PPARG/RXRA LBD heterodimer. Specifically, a 20 microliters of TR-FRET master mix consisting of 2 nM WT PPARG LBD (E. coli expressed, His-TEV-Q203-Y477; Uniprot ID P37231-2), 2 nM WT RXRA LBD (E. coli expressed, Flag-TEV-E228-T462; […]. Mixtures were incubated for 3 hours and read in an EnVision plate reader (Perkin Elmer) with […]. To determine the potency (ICso) and extent of MED1 repulsion. TR-FRET ratios were normalized to the average ratio of DMSO control wells (0%) and to the average minimum ratio for positive control compound (GW9662 (2-chloro-5-nitrobenzanilide); defined as 100%/6) in CDD Vault and analyzed using the Levenberg-Marquardt algorithm.

[3] = molecular target: T2, PPARG/RXRA LBD heterodimer (Homo sapiens, UniProt P37231); experiment: PPARγ-NCOR1 recruitment assay (TR-FRET, biotinylated NCOR1 ID2 peptide); type: binding; conditions: for Emax: 3 h, maximal extent, T0070907 defined as 100%, DMSO 0%, read-out: % NCOR recruitment relative to T907; for EC50: TR-FRET, 80 nM Rosiglitazone, 3 hours incubation, read-out: PPARG-NCOR recruitment assay EC50
T2 construct: His-TEV-Q203-Y477: Uniprot ID P37231-2; made in house; host or cells: E. coli
Description: PPARγ-NCOR1 Recruitment Assay:
Compound potency (EC50) and maximal extent of NCOR1 recruitment to PPARG were assessed a TR-FRET binding assay measuring association of a biotinylated NCOR1 ID2 peptide (Biotin-[…]-amide) to PPARG/RXRA LBD heterodimer. Specifically, a 20 microliters of TR-FRET master mix consisting of 2 nM WT PPARG LBD (E. coli expressed, His-TEV-Q203-Y477: Uniprot ID P37231-2), 2 nM WT RXRA LBD or mutant S427F RXRA LBD (E. coli expressed, Flag-TEV-E228-T462; […]. Mixtures were incubated for 3 hours and read in an EnVision plate reader (Perkin Elmer) with […]. To determine the potency (EC50) and extent of NCOR1 recruitment, TR-FRET ratios were normalized to the average ratio of DMSO control wells (0%) and to the average maximum ratio for positive control compound (T0070907 (2-chloro-5-nitro-N-4-pyridinyl-benzamide); defined as 100%) in CDD Vault and analyzed using the Levenberg-Marquardt algorithm.
T2 sequence (O75376 2251-2273 partner, one chain of several): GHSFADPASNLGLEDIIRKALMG

| EC50 [1] [nM] | Emax [2] [%] | EC50 [2] [nM] | Emax [3] [%] | EC50 [3] [nM] | SMILES | inhibition at 0.1 µM [1] [%] |
| --- | --- | --- | --- | --- | --- | --- |
| 1.6 | > 100 | 10 to 100 | > 100 | 10 to 100 | CS(=O)(=O)c1ccc(C#N)cc1-c1cc(=O)c2c(F)cc(Cl)cc2[nH]1 [Example 10] | 89 |
| 0.07 | > 100 | < 10 | > 100 | < 10 | N#Cc1ccc(S(=O)(=O)C(F)(F)F)c(-c2cc(=O)c3c(F)cc(F)cc3[nH]2)c1 [Example 11] | 88 |
| – | < 100 | > 10000 | < 100 | > 10000 | CC(C)S(=O)(=O)c1ccc(C#N)cc1-c1cc(=O)c2c(F)cc(F)cc2[nH]1 [Example 12, 3-(5,7-difluoro-4-oxo-1,4-dihydroquinolin-2-yl)-4-(isopropylsulfonyl)benzonitrile] | 67 |
| – | < 100 | 1000 to 10000 | < 100 | 1000 to 10000 | CC(C)CS(=O)(=O)c1ccc(C#N)cc1-c1cc(=O)c2c(F)cc(F)cc2[nH]1 [Example 13, 3-5,7-difluoro-4-oxo-1,4-dihydroquinolin-2-yl-4-(isobutylsulfonyl)benzonitrile] | 77 |
| – | > 100 | 10 to 100 | > 100 | 10 to 100 | Cn1cc(-c2c(F)cc3[nH]c(-c4cc(C#N)ccc4S(C)(=O)=O)cc(=O)c3c2F)cn1 [Example 14] | 89 |
| – | > 100 | 10 to 100 | > 100 | 10 to 100 | Cc1ccc(-c2c(F)cc3[nH]c(-c4cc(C#N)ccc4S(C)(=O)=O)cc(=O)c3c2F)cn1 [Example 15, 3-(5,7-difluoro-6-(6-methylpyridin-3-yl)-4-oxo-1,4-dihydroquinolin-2-yl)-4-(methylsulfonyl)benzonitrile] | 68 |

The next lines start with the compound.

| SMILES | EC50 [1] [nM] | Emax [2] [%] | EC50 [2] [nM] | Emax [3] [%] | EC50 [3] [nM] | inhibition at 0.1 µM [1] [%] |
| --- | --- | --- | --- | --- | --- | --- |
| CS(=O)(=O)c1ccc(C#N)cc1-c1cc(=O)c2c(F)cc(F)cc2[nH]1 [Example 1, 3-(5,7-difluoro-4-oxo-1,4-dihydroquinolin-2-yl)-4-(methylsulfonyl)benzonitrile] | 1.3 | > 100 | 100 to 1000 | > 100 | 100 to 1000 | 88 |
| CCS(=O)(=O)c1ccc(C#N)cc1-c1cc(=O)c2c(F)cc(F)cc2[nH]1 [Example 2, 3-(5,7-difluoro-4-oxo-1,4-dihydroquinolin-2-yl)-4-(ethylsulfonyl)-benzonitrile] | – | > 100 | 100 to 1000 | > 100 | 100 to 1000 | 86 |
| CN1CCN(c2c(F)cc3[nH]c(-c4cc(C#N)ccc4S(C)(=O)=O)cc(=O)c3c2F)CC1 [Example 3, 3-(5,7-difluoro-6-(4-methylpiperazin-1-yl)-4-oxo-1,4-dihydroquinolin-2-yl)-4-(methylsulfonyl)-benzonitrile] | – | > 100 | 100 to 1000 | > 100 | 100 to 1000 | 66 |
| N#Cc1ccc(S(=O)(=O)CC(F)(F)F)c(-c2cc(=O)c3c(F)cc(F)cc3[nH]2)c1 [Example 4, 3-(5,7-difluoro-4-oxo-1,4-dihydroquinolin-2-yl)-4-((2,2,2-trifluoroethyl)sulfonyl)-benzonitrile] | – | > 100 | 100 to 1000 | > 100 | 100 to 1000 | 14 |
| N#Cc1ccc([S+]([O-])CC(F)(F)F)c(-c2cc(=O)c3c(F)cc(F)cc3[nH]2)c1 (centres unmarked) [Example 5] | – | > 100 | 1000 to 10000 | > 100 | 1000 to 10000 | 15 |
| CSc1ccc(C#N)cc1-c1cc(=O)c2c(F)cc(F)cc2[nH]1 [Example 6, 3-(5,7-difluoro-4-oxo-1,4-dihydroquinolin-2-yl)-4-(methylthio)benzonitrile] | – | – | > 10000 | – | > 10000 | 17 |
| C[S+]([O-])c1ccc(C#N)cc1-c1cc(=O)c2c(F)cc(F)cc2[nH]1 (centres unmarked) [Example 7, 3-(5,7-difluoro-4-oxo-1,4-dihydroquinolin-2-yl)-4-(methylsulfinyl)benzonitrile] | – | > 100 | > 10000 | > 100 | 1000 to 10000 | 26 |
| CS(=N)(=O)c1ccc(C#N)cc1-c1cc(=O)c2c(F)cc(F)cc2[nH]1 (centres unmarked) [Example 8, 3-(5,7-difluoro-4-oxo-1,4-dihydroquinolin-2-yl)-4-(S-methylsulfonimidoyl)benzonitrile] | – | > 100 | 100 to 1000 | > 100 | 100 to 1000 | 84 |
| CS(=O)(=O)c1ccc(C#N)cc1-c1cc(=O)c2ccc(Cl)cc2[nH]1 [Example 9, 3-(7-chloro-4-oxo-1,4-dihydroquinolin-2-yl)-4-(methylsulfonyl)benzonitrile] | 0.9 | > 100 | 10 to 100 | > 100 | 10 to 100 | 85 |
